Measured values reported in US10160867B2, “Benzoxaborole-containing coating resistant to cellulose-supportable fungus” (THE PENN STATE RESEARCH FOUNDATION, priority 2015, dated 2018).
In brackets after ≈: the same amount, converted by molar mass.

Columns and labels:
Assay type in all cases: cell-based
[1] = system: Penicillium corylophilum; assay: 3 day MIC, broth microdilution in 25% PDB; conditions: 25% PDB; for MIC: 72 h, read-out: 3 day MIC
Method in brief: (§1)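 Broth microdilution in 25% potato dextrose broth containing about 0.5–2% v/v DMSO, spore inoculum at a final 0.4–1×10^5 spores/mL (CFU/mL). Plates sealed and incubated at about 25 °C; fungal growth checked at 48 and 72 h.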

[2] = system: Penicillium brevicompactum; assay: 3 day MIC, broth microdilution in 25% PDB; conditions: 25% PDB; for MIC: 72 h, read-out: 3 day MIC
Method in brief: as §1

[3] = system: Alternaria alternata; assay: 3 day MIC, broth microdilution in 25% PDB; conditions: 25% PDB; for MIC: 72 h, read-out: 3 day MIC
Method in brief: as §1

[4] = system: Penicillium purpurogenum; assay: 3 day MIC, broth microdilution in 25% PDB; conditions: Penicillium purpurogenum, 25% PDB; for MIC: 72 h, read-out: 3 day MIC
Method in brief: as §1

[5] = system: Penicillium chrysogenum; assay: 3 day MIC, broth microdilution in 25% PDB; conditions: 25% PDB; for MIC: 72 h, read-out: 3 day MIC
Method in brief: as §1

[6] = system: Stachybotrys chartarum; assay: 3 day MIC, broth microdilution in 25% PDB; conditions: 25% PDB; for MIC: 72 h, read-out: 3 day MIC
Method in brief: as §1

[7] = system: Alternaria alternata; assay: Fungus resistance test for painted surfaces containing antifungal additives (defacement rating); set-up: key: 10 = no defacement, 0 = completely defaced; conditions: +100 μg/mL in Olympic Home paint
Method: (§2) A Defacement Rating is measured by estimating the percentage of surface defacement with 10 being no defacement and 0 begin completely defaced.
(§3) This test was used to evaluate the resistance of paint films containing antifungal additives to surface fungal growth.
(§4) Olympic® Home interior flat latex paint (PPG Industries, Pittsburgh, Pa.) and Valspar® QuikHide White flat interior paint (Valspar Corporation, Minneapolis, Minn.) were used for all studies unless otherwise noted. Stock solutions of the antifungal additives of interest were prepared in reagent grade dimethyl sulfoxide (DMSO; Alfa Aesar, Ward Hill, Mass.). Additives were spiked (by adding appropriate amounts of the antifungal stock solutions) into the liquid paint at specified concentrations. Samples of the additive-spiked paint were vigorously mixed with a vortex mixer for at least one minute to ensure uniform dispersion of the additive in the paint. […] Studies that use other brands of paint followed the same protocol as described for those using the Olympic® Home interior flat latex paint and Valspar® QuikHide paint.
(§5) Test surfaces were prepared in triplicate. In most cases, the tested conditions were repeated on a different date, again in triplicate. […] Two coats of paint were applied with a polyester brush to completely cover both faces of the filter paper disc, allowing at least four hours drying time between coats.
(§6) Nutrient-Salts Agar (NSA) medium was prepared according to ASTM method G21-13 in 100×15 mm sterile polystyrene petri dishes (VWR® Radnor, Pa.) with a solidified agar layer of about 3 to about 6 mm (⅛ to ¼ in.) in depth. The agar was allowed to solidify for at least 24 hours before being used. The painted test filter paper discs were placed in the center of the agar plates in a biosafety hood while wearing clean nitrile gloves.
(§7) The paint coatings were evaluated against three representative cellulose-supportable fungi: Stachybotrys chartarum, Penicillium chrysogenum, and Alternaria alternata. […] Fungal isolates of Alternaria alternata and Penicillium chrysogenum were obtained from the Plant Pathology and Environmental Microbiology Department at Penn State University.
(§8) A spore suspension of each of these fungi was prepared by pouring a 20-mL portion of autoclaved deionized water containing 0.01% Tween® 20 onto a subculture of each fungal species. Spores were counted with the use of a hemocytometer (Hausser Scientific, Horsham, Pa.) under a compound light microscope. Spore suspensions of Stachybotrys chartarum and Penicillium chrysogenum were diluted to 1×10^6 spores/mL with autoclaved deionized water. Spore suspensions of Alternaria alternata were used “as is” in the range of 200,000 to 400,000 spores/mL.
(§9) Painted test surfaces were inoculated with a spray bottle or with a sterile cotton-tipped applicator. To inoculate the sample with a spray bottle, the spore suspension was sprayed twice on the painted test discs with an autoclaved spray bottle that delivered approximately 0.14 g of fluid per spray. To inoculate the sample with a cotton-tipped applicator, an autoclaved cotton-tipped applicator was submerged in approximately 400 μL of the spore inoculum solution (spore concentrations described above) and applied evenly over the surface of the painted test surface twice. A fresh autoclaved cotton-tipped applicator was used for the application of each painted disc. All the paint studies with Alternaria alternata and Stachybotrys chartarum were inoculated using the spray bottle method. For studies with Penicillium chrysogenum using Olympic® Home paint, the spray bottle inoculation method was used. For studies with Penicillium chrysogenum using Valspar® QuikHide paint, the cotton-tipped applicator inoculation method was used.
(§10) After inoculation, the NSA agar plates were sealed with Parafilm®.

[8] = system: Penicillium chrysogenum; assay: as above; set-up: key: 10 = no defacement, 0 = completely defaced
Method: as §2, §3, §4, §5, §6, §7, §8, §9, §10

[9] = system: Stachybotrys chartarum; assay: as above; set-up: key: 10 = no defacement, 0 = completely defaced; conditions: +100 μg/mL in Olympic Home paint
Method: as §2, §3, §4, §5, §6, §7, §8, §9, §10

[10] = system: Aspergillus fumigatus; assay: 3 day MIC, broth microdilution in 25% PDB; conditions: for MIC: 72 h
Method: Stock solutions (concentrations of between 4,000 μg/mL to 10,000 μg/mL; stored at −18° C.) of the above antifungals were prepared in dimethyl sulfoxide (DMSO). The stock solutions were further diluted into sterile 25% potato dextrose broth (PDB) so that the diluted solutions could be used for the antifungal susceptibility studies. This way, a typical microdilution study would reach a final ratio of about 0.5-2% v/v of DMSO in 25% PDB.
Spore inocula were prepared in sterile distilled water with 0.1% Tween® 20 (a polysorbate surfactant), and a hemocytometer was used to determine the spore density. Typically, the spore inoculum was prepared fresh prior to each study, and the inoculum was appropriately diluted to a final concentration of 0.4-1×10^5 spores/mL or colony-forming unit (CFU)/mL in each study. The spore suspension can be stored in a refrigerator at 4° C. for up to one week.
The minimal inhibitory concentrations (MICs) for individual antifungal agents were determined by following a modified broth microdilution protocol CLSI (Clinical and Laboratory Standards Institute) M38-A2 [Clinical and Laboratory Standards Institute (2008) Reference method for broth dilution antifungal susceptibility testing of filamentous fungi—2nd edition: Approved Standard M38-A2, CLSI, Wayne, Pa.] where 25% potato dextrose broth (PDB) was used as the medium. The studies were performed in flat bottom, 96-well microtiter plates (Greiner Bio-One, Frickenhausen, Germany).
Plates sealed with clear polyester film (VWR, Radnor, Pa.) were incubated at a temperature of about 25° C. The progress of fungal growth was monitored at 48 hours and 72 hours.

[11] = +100 μg/mL in Olympic Home paint, 7 days
[12] = +100 μg/mL in Olympic Home paint, 14 days
[13] = +100 μg/mL in Olympic Home paint, 21 days
[14] = +200 μg/mL in Olympic Home paint, 7 days
[15] = +200 μg/mL in Olympic Home paint, 14 days
[16] = +200 μg/mL in Olympic Home paint, 21 days
[17] = +200 μg/mL in Valspar QuikHide paint, 7 days
[18] = +200 μg/mL in Valspar QuikHide paint, 14 days
[19] = +200 μg/mL in Valspar QuikHide paint, 21 days

Row | SMILES | MIC [1] [µg/mL] | MIC [2] [µg/mL] | MIC [3] [µg/mL] | MIC [4] [µg/mL] | MIC [5] [µg/mL] | MIC [6] [µg/mL] | Average defacement rating ± standard deviation ([7]; 7 days) | Average defacement rating ± standard deviation ([7]; 14 days) | Average defacement rating ± standard deviation ([7]; 21 days) | Average defacement rating ± standard deviation [8, 11] | Average defacement rating ± standard deviation [8, 12] | Average defacement rating ± standard deviation [8, 13] | Average defacement rating ± standard deviation ([9]; 7 days) | Average defacement rating ± standard deviation ([9]; 14 days) | Average defacement rating ± standard deviation ([9]; 21 days) | MIC [10] [µg/mL] | Average defacement rating ± standard deviation [8, 14] | Average defacement rating ± standard deviation [8, 15] | Average defacement rating ± standard deviation [8, 16] | Average defacement rating ± standard deviation [8, 17] | further results
1 | O=C1C2CC=CCC2C(=O)N1SC(Cl)(Cl)Cl (stereo not drawn) [Captan] | 0.78 (≈ 2.59 µM) | 0.78 (≈ 2.59 µM) | 1.6 (≈ 5.32 µM) | 0.78 (≈ 2.59 µM) | 0.78 (≈ 2.59 µM) | 0.39 (≈ 1.3 µM) | 0.1 ± 0.3 | 0.0 ± 0.0 | 0.0 ± 0.0 | 3.2 ± 1.8 | 0.0 ± 0.0 | 0.0 ± 0.0 | 2.9 ± 3.3 | 0.0 ± 0.0 | 0.0 ± 0.0 | 12.5 (≈ 41.6 µM) | – | – | – | – | Average defacement rating ± standard deviation ([7]; 7 days, listed as captan): 0.1±0.3
2 | N#Cc1c(Cl)c(Cl)c(Cl)c(C#N)c1Cl [Chlorothalonil, chlorothalonil] | 0.39 (≈ 1.47 µM) | < 0.1 | 0.78 (≈ 2.93 µM) | 0.78 (≈ 2.93 µM) | < 0.1 | < 0.1 | 1.9 ± 2.4 | 0.5 ± 1.8 | 0.5 ± 1.8 | 4.9 ± 1.9 | 0.0 ± 0.0 | 0.0 ± 0.0 | 5.8 ± 3.0 | 0.8 ± 1.8 | 0.6 ± 1.7 | 0.2 (≈ 0.752 µM) | 8.3 ± 1.4 | 0.8 ± 2.0 | 0.0 ± 0.0 | 10.0 ± 0.0 | 3 day MIC [6]: <0.1 µg/mL; Average defacement rating ± standard deviation [8, 18]: 5.3 ± 0.6; Average defacement rating ± standard deviation [8, 19]: 0.3 ± 0.6
3 | CCCCNC(=O)OCC#CI [IPBC, 3-Iodo-2-propynylbutylcarbamate] | – | – | – | – | – | – | 9.9 ± 0.4 | 8.4 ± 2.7 | 7.5 ± 3.4 | 10.0 ± 0.0 | 9.4 ± 0.4 | 9.4 ± 0.4 | 9.9±0.3 | 8.1 ± 1.5 | 6.1±2.7 | – | 10.0 ± 0.0 | 10.0 ± 0.0 | 9.3 ± 0.8 | 10.0 ± 0.0 | 3 day MIC [1]: 0.20 µg/mL; 3 day MIC [2]: 0.4 µg/mL; 3 day MIC [3]: 0.8 µg/mL; 3 day MIC [4]: <0.1 µg/mL; 3 day MIC [5]: 0.2 µg/mL; 3 day MIC [6]: 0.8 µg/mL; Average defacement rating ± standard deviation [8, 18]: 10.0 ± 0.0; Average defacement rating ± standard deviation [8, 19]: 10.0 ± 0.0; 3 day MIC [10]: 0.4 µg/mL
4 | c1ccc2[nH]c(-c3cscn3)nc2c1 [Thiabendazole] | 0.39 (≈ 1.94 µM) | 0.4 (≈ 1.99 µM) | 100 (≈ 497 µM) | 0.2 (≈ 0.994 µM) | 0.4 (≈ 1.99 µM) | 25 (≈ 124 µM) | 0.0 ± 0.0 | 0.0 ± 0.0 | 0.0 ± 0.0 | 4.1 ± 0.0 | 0.4 ± 0.4 | 0.0 ± 0.0 | 1.3 ± 0.3 | 0.0 ± 0.0 | 0.0 ± 0.0 | 6.25 (≈ 31.1 µM) | 9.3 ± 1.2 | 4.0 ± 4.7 | 1.7 ± 3.6 | 10.0 ± 0.0 | Average defacement rating ± standard deviation [8, 18]: 9.3 ± 1.2; Average defacement rating ± standard deviation [8, 19]: 4.7 ± 4.6
